Measured values: PubChem BioAssay (NCI)
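Method: 48-hour compound exposure of cells in 96-well plates, five concentrations, linear interpolation of endpoints. TGI denotes the concentration required for complete inhibition of growth.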

How the values were obtained:
Experiment in all cases: inhibition of tumour cell growth, NCI panel, 48 h
[1] = system: 786-0 renal
[2] = system: A498 renal
[3] = system: A549 NSCLC
[4] = system: ACHN renal
[5] = system: BT-549 breast
[6] = system: CAKI-1 renal
[7] = system: CCRF-CEM leukemia
[8] = system: COLO 205 colon
[9] = system: DU-145 prostate
[10] = system: EKVX NSCLC
[11] = system: HCT-116 colon
[12] = system: HCT-15 colon
[13] = system: HL-60(TB) leukemia
[14] = system: HOP-62 NSCLC
[15] = system: HOP-92 NSCLC
[16] = system: HT29 colon
[17] = system: IGROV1 ovarian
[18] = system: K-562 leukemia
[19] = system: KM12 colon
[20] = system: LOX IMVI melanoma
[21] = system: M14 melanoma
[22] = system: MALME-3M melanoma
[23] = system: MCF7 breast
[24] = system: MDA-MB-231 breast
[25] = system: MDA-MB-435
[26] = system: MDA-N
[27] = system: MOLT-4 leukemia
[28] = system: NCI-H226 lung
[29] = system: NCI-H23 lung
[30] = system: NCI-H460 lung
[31] = system: NCI-H522 lung
[32] = system: NCI/ADR-RES ovarian
[33] = system: OVCAR-4 ovarian
[34] = system: OVCAR-5 ovarian
[35] = system: OVCAR-8 ovarian
[36] = system: PC-3 prostate
[37] = system: RPMI-8226 leukemia
[38] = system: RXF 393 renal
[39] = system: SF-268 CNS
[40] = system: SF-295 CNS
[41] = system: SF-539 CNS
[42] = system: SK-MEL-2 melanoma
[43] = system: SK-MEL-28 melanoma
[44] = system: SK-MEL-5 melanoma
[45] = system: SK-OV-3 ovarian
[46] = system: SN12C renal
[47] = system: SNB-19 CNS
[48] = system: SNB-75 CNS
[49] = system: SR leukemia
[50] = system: SW-620 colon
[51] = system: T-47D breast
[52] = system: TK-10 renal
[53] = system: U251 CNS
[54] = system: UACC-257 melanoma
[55] = system: UACC-62 melanoma
[56] = system: UO-31 renal
[57] = system: HCC-2998 colon
[58] = system: OVCAR-3 ovarian

## CC(=NC1CCCCC1)c1ccccc1O
[1]
  TGI: > 100 µM
[2]
  TGI: > 100 µM
[3]
  TGI: > 100 µM
[4]
  TGI: > 100 µM
[5]
  TGI: > 100 µM
[6]
  TGI: > 100 µM
[7]
  TGI: > 100 µM
[8]
  TGI: > 100 µM
[9]
  TGI: > 100 µM
[10]
  TGI: > 100 µM
[11]
  TGI: > 100 µM
[12]
  TGI: > 100 µM
[13]
  TGI: > 100 µM
[14]
  TGI: > 100 µM
[15]
  TGI: > 100 µM
[16]
  TGI: > 100 µM
[17]
  TGI: > 100 µM
[18]
  TGI: > 100 µM
[19]
  TGI: > 100 µM
[20]
  TGI: > 100 µM
[21]
  TGI: > 100 µM
[22]
  TGI: > 100 µM
[23]
  TGI: > 100 µM
[24]
  TGI: > 100 µM
[25]
  TGI: > 100 µM
[26]
  TGI: > 100 µM
[27]
  TGI: > 100 µM
[28]
  TGI: > 100 µM
[29]
  TGI: > 100 µM
[30]
  TGI: > 100 µM
[31]
  TGI: > 100 µM
[32]
  TGI: > 100 µM
[33]
  TGI: > 100 µM
[34]
  TGI: > 100 µM
[35]
  TGI: > 100 µM
[36]
  TGI: > 100 µM
[37]
  TGI: > 100 µM
[38]
  TGI: > 100 µM
[39]
  TGI: > 100 µM
[40]
  TGI: > 100 µM
[41]
  TGI: > 100 µM
[42]
  TGI: > 100 µM
[43]
  TGI: > 100 µM
[44]
  TGI: > 100 µM
[45]
  TGI: > 100 µM
[46]
  TGI: > 100 µM
[47]
  TGI: > 100 µM
[48]
  TGI: > 100 µM
[49]
  TGI: > 100 µM
[50]
  TGI: > 100 µM
[51]
  TGI: > 100 µM
[52]
  TGI: > 100 µM
[53]
  TGI: > 100 µM
[54]
  TGI: > 100 µM
[55]
  TGI: > 100 µM
[56]
  TGI: > 100 µM

## C=C(C)C(=O)OC1CC2(C)OC(=CC2=O)C(C)CC2OC(=O)C(=C)C12 (stereo unspecified)
[1]
  TGI: 17.6 µM
[2]
  TGI: 37.6 µM
[3]
  TGI: 47.7 µM
[4]
  TGI: 14.4 µM
[5]
  TGI: 21.4 µM
[6]
  TGI: 9.02 µM
[8]
  TGI: 3.31 µM
[9]
  TGI: 18.7 µM
[10]
  TGI: 25.1 µM
[57]
  TGI: 24.8 µM
[11]
  TGI: 5.15 µM
[12]
  TGI: 5.19 µM
[14]
  TGI: 38.1 µM
[15]
  TGI: 28.7 µM
[16]
  TGI: 24.2 µM
[17]
  TGI: 25.4 µM
[19]
  TGI: 55.3 µM
[20]
  TGI: 17.8 µM
[21]
  TGI: 24.2 µM
[22]
  TGI: 16.1 µM
[23]
  TGI: 26.6 µM
[24]
  TGI: 38.8 µM
[25]
  TGI: 25.8 µM
[26]
  TGI: 7.98 µM
[27]
  TGI: > 35.1 µM
[28]
  TGI: > 62.8 µM
[29]
  TGI: 24.6 µM
[30]
  TGI: 29.7 µM
[31]
  TGI: 4.2 µM
[32]
  TGI: 69.8 µM
[58]
  TGI: 19 µM
[33]
  TGI: 20.1 µM
[34]
  TGI: 26.9 µM
[35]
  TGI: 35.6 µM
[36]
  TGI: 31.8 µM
[37]
  TGI: > 100 µM
[38]
  TGI: 5.62 µM
[39]
  TGI: > 100 µM
[40]
  TGI: 38.1 µM
[41]
  TGI: 14.2 µM
[42]
  TGI: 34.3 µM
[43]
  TGI: 30.2 µM
[44]
  TGI: 13.4 µM
[45]
  TGI: > 100 µM
[46]
  TGI: 36.7 µM
[47]
  TGI: 39.2 µM
[48]
  TGI: 49.2 µM
[49]
  TGI: > 24.7 µM
[50]
  TGI: 18.3 µM
[51]
  TGI: 27.8 µM
[52]
  TGI: 28.3 µM
[53]
  TGI: 74.5 µM
[54]
  TGI: 35.2 µM
[55]
  TGI: 27.7 µM
[56]
  TGI: 16.6 µM
